Measured values: ChEMBL document CHEMBL1151400, “Plant antiviral agents. III. Isolation of alkaloids from Clivia miniata Regel (Amaryllidaceae)” (J Nat Prod, 1982)
The source made the active and inactive calls.

What was measured:
[1] = test system: Measles morbillivirus; assay: Antiviral activity against Measles virus infected african green monkey Vero cells assessed as reduction in virus-induced cytopathic effect at 100 ug/mL after 96 hrs measured as viral titer per ml by microscopy; assay type: functional
[2] = test system: Simplexvirus; assay: Antiviral activity against Herpes simplex virus infected african green monkey Vero cells assessed as reduction in virus-induced cytopathic effect at 100 ug/mL after 96 hrs measured as viral titer per ml by microscopy; assay type: functional
[3] = test system: Enterovirus C; assay: Antiviral activity against Poliovirus infected african green monkey Vero cells assessed as reduction in virus-induced cytopathic effect at 100 ug/mL after 96 hrs measured as viral titer per ml by microscopy; assay type: functional
[4] = test system: Enterovirus C; assay: Antiviral activity against Poliovirus infected african green monkey Vero cells assessed as reduction in virus-induced cytopathic effect at 50 ug/mL after 96 hrs measured as viral titer per ml by microscopy; assay type: functional
[5] = test system: Semliki Forest virus; assay: Antiviral activity against Semliki forest virus infected african green monkey Vero cells assessed as reduction in virus-induced cytopathic effect at 50 ug/mL after 96 hrs measured as viral titer per ml by microscopy; assay type: functional
[6] = test system: Simplexvirus; assay: Antiviral activity against Herpes simplex virus infected african green monkey Vero cells assessed as reduction virus-induced cytopathic effect at 50 ug/mL after 96 hrs measured as viral titer per ml by microscopy; assay type: functional
[7] = test system: Semliki Forest virus; assay: Antiviral activity against Semliki forest virus infected african green monkey Vero cells assessed as reduction in virus-induced cytopathic effect at 100 ug/mL after 96 hrs measured as viral titer per ml by microscopy; assay type: functional
[8] = test system: Measles morbillivirus; assay: Antiviral activity against Measles virus infected african green monkey Vero cells assessed as reduction in virus-induced cytopathic effect at 50 ug/mL after 96 hrs measured as viral titer per ml by microscopy; assay type: functional
[9] = test system: Simplexvirus; assay: Antiviral activity against Herpes simplex virus infected african green monkey Vero cells assessed as reduction in virus-induced cytopathic effect at 20 ug/mL after 96 hrs measured as viral titer per ml by microscopy; assay type: functional
[10] = test system: Simplexvirus; assay: Antiviral activity against Herpes simplex virus infected african green monkey Vero cells assessed as reduction in virus-induced cytopathic effect at 2.5 ug/mL after 96 hrs measured as viral titer per ml by microscopy; assay type: functional
[11] = test system: Enterovirus C; assay: Antiviral activity against Poliovirus infected african green monkey Vero cells assessed as reduction in virus-induced cytopathic effect at 2.5 ug/mL after 96 hrs measured as viral titer per ml by microscopy; assay type: functional
[12] = test system: Semliki Forest virus; assay: Antiviral activity against Semliki forest virus infected african green monkey Vero cells assessed as reduction in virus-induced cytopathic effect at 2.5 ug/mL after 96 hrs measured as viral titer per ml by microscopy; assay type: functional
[13] = test system: Simplexvirus; assay: Antiviral activity against Herpes simplex virus infected african green monkey Vero cells assessed as reduction in virus-induced cytopathic effect at 5 ug/mL after 96 hrs measured as viral titer per ml by microscopy; assay type: functional
[14] = test system: Enterovirus C; assay: Antiviral activity against Poliovirus infected african green monkey Vero cells assessed as reduction in virus-induced cytopathic effect at 20 ug/mL after 96 hrs measured as viral titer per ml by microscopy; assay type: functional
[15] = test system: Measles morbillivirus; assay: Antiviral activity against Measles virus infected african green monkey Vero cells assessed as reduction in virus-induced cytopathic effect at 20 ug/mL after 96 hrs measured as viral titer per ml by microscopy; assay type: functional
[16] = test system: Simplexvirus; assay: Antiviral activity against Herpes simplex virus infected african green monkey Vero cells assessed as reduction in virus-induced cytopathic effect at 10 ug/mL after 96 hrs measured as viral titer per ml by microscopy; assay type: functional
[17] = test system: Measles morbillivirus; assay: Antiviral activity against Measles virus infected african green monkey Vero cells assessed as reduction in virus-induced cytopathic effect at 10 ug/mL after 96 hrs measured as viral titer per ml by microscopy; assay type: functional
[18] = test system: Semliki Forest virus; assay: Antiviral activity against Semliki forest virus infected african green monkey Vero cells assessed as reduction in virus-induced cytopathic effect at 20 ug/mL after 96 hrs measured as viral titer per ml by microscopy; assay type: functional
[19] = test system: Enterovirus C; assay: Antiviral activity against Poliovirus infected african green monkey Vero cells assessed as reduction in virus-induced cytopathic effect at 5 ug/mL after 96 hrs measured as viral titer per ml by microscopy; assay type: functional
[20] = test system: Enterovirus C; assay: Antiviral activity against Poliovirus infected african green monkey Vero cells assessed as reduction in virus-induced cytopathic effect at 10 ug/mL after 96 hrs measured as viral titer per ml by microscopy; assay type: functional
[21] = test system: Measles morbillivirus; assay: Antiviral activity against Measles virus infected african green monkey Vero cells assessed as reduction in virus-induced cytopathic effect at 5 ug/mL after 96 hrs measured as viral titer per ml by microscopy; assay type: functional
[22] = test system: Semliki Forest virus; assay: Antiviral activity against Semliki forest virus infected african green monkey Vero cells assessed as reduction in virus-induced cytopathic effect at 5 ug/mL after 96 hrs measured as viral titer per ml by microscopy; assay type: functional
[23] = test system: Measles morbillivirus; assay: Antiviral activity against Measles virus infected african green monkey Vero cells assessed as reduction in virus-induced cytopathic effect at 2.5 ug/mL after 96 hrs measured as viral titer per ml by microscopy; assay type: functional
[24] = test system: Semliki Forest virus; assay: Antiviral activity against Semliki forest virus infected african green monkey Vero cells assessed as reduction in virus-induced cytopathic effect at 10 ug/mL after 96 hrs measured as viral titer per ml by microscopy; assay type: functional
[25] = test system: Vero; assay: Cytotoxicity against Poliovirus infected african green monkey Vero cells assessed as monolayer destruction at 100 ug/mL; assay type: cell-based; conditions: chlorocebus sabaeus
[26] = Therapeutic index, ratio of cytotoxicity against african green monkey Vero cells to antiviral activity against Semliki forest virus; assay type: cell-based; conditions: read-out: TI
[27] = test system: Enterovirus C; assay: Antiviral activity against Poliovirus infected african green monkey Vero cells assessed as reduction of virus-induced cytopathic effect at 1 ug/mL after 96 hrs by microscopy; assay type: functional, organism-based
[28] = test system: Enterovirus C; assay: Antiviral activity against Poliovirus infected african green monkey Vero cells assessed as reduction of virus-induced cytopathic effect at 1 ug/mL after 4 days; assay type: functional, organism-based
[29] = test system: Vero; assay: Cytotoxicity against Measles virus infected african green monkey Vero cells assessed as monolayer destruction at 100 ug/mL; assay type: cell-based; conditions: chlorocebus sabaeus
[30] = test system: Enterovirus C; assay: Antiviral activity against Poliovirus infected african green monkey Vero cells assessed as reduction of virus-induced cytopathic effect at < 1 ug/mL after 4 days; assay type: functional, organism-based
[31] = test system: Vero; assay: Cytotoxicity against african green monkey Vero cells assessed as monolayer destruction at 50 ug/mL after 24 hrs by trypan blue exclusion test; assay type: cell-based; conditions: chlorocebus sabaeus
[32] = test system: Vero; assay: Cytotoxicity against Measles virus infected african green monkey Vero cells assessed as monolayer destruction at 50 ug/mL; assay type: cell-based; conditions: chlorocebus sabaeus
[33] = test system: Vero; assay: Cytotoxicity against Herpes simplex virus infected african green monkey Vero cells assessed as monolayer destruction at 100 ug/mL; assay type: cell-based; conditions: chlorocebus sabaeus
[34] = Therapeutic index, ratio of cytotoxicity against african green monkey Vero cells to antiviral activity against Measles virus; assay type: cell-based; conditions: read-out: TI
[35] = Therapeutic index, ratio of cytotoxicity against african green monkey Vero cells to antiviral activity against Herpes simplex virus; assay type: cell-based; conditions: read-out: TI
[36] = test system: Vero; assay: Cytotoxicity against african green monkey Vero cells assessed as monolayer destruction at 10 ug/mL after 24 hrs by trypan blue exclusion test; assay type: cell-based; conditions: chlorocebus sabaeus
[37] = Therapeutic index, ratio of cytotoxicity against african green monkey Vero cells to antiviral activity against Poliovirus; assay type: cell-based; conditions: read-out: TI
[38] = test system: Vero; assay: Cytotoxicity against Poliovirus infected african green monkey Vero cells assessed as monolayer destruction at > 25 ug/mL; assay type: cell-based; conditions: chlorocebus sabaeus
[39] = test system: Vero; assay: Cytotoxicity against Semliki forest virus infected african green monkey Vero cells assessed as monolayer destruction at 100 ug/mL; assay type: cell-based; conditions: chlorocebus sabaeus
[40] = test system: Vero; assay: Effect on african green monkey Vero cell growth assessed as doubling of cell generation at 1 ug/mL after 24 hrs by trypan blue exclusion test; assay type: cell-based; conditions: chlorocebus sabaeus
[41] = test system: Vero; assay: Cytotoxicity against Semliki forest virus infected african green monkey Vero cells assessed as monolayer destruction at 50 ug/mL; assay type: cell-based; conditions: chlorocebus sabaeus
[42] = test system: Vero; assay: Cytotoxicity against Herpes simplex virus infected african green monkey Vero cells assessed as monolayer destruction at 50 ug/mL; assay type: cell-based; conditions: chlorocebus sabaeus
[43] = test system: Vero; assay: Cytotoxicity against Poliovirus infected african green monkey Vero cells assessed as monolayer destruction at 50 ug/mL; assay type: cell-based; conditions: chlorocebus sabaeus
[44] = test system: Vero; assay: Cytotoxicity against african green monkey Vero cells assessed as monolayer destruction at 25 ug/mL after 24 hrs by trypan blue exclusion test; assay type: cell-based; conditions: chlorocebus sabaeus

CCOC(=O)c1cc(C(=O)O[C@H]2C[C@H]3CCN(C)[C@H]3[C@@H]3c4cc5c(cc4C(=O)O[C@H]32)OCO5)c(C)nc1C [CLIVIAMARTINE]
1: pTCD50 [1] | pTCD50 [4] | pTCD50 [5] | pTCD50 [8]
10: pTCD50 [2] | pTCD50 [3] | pTCD50 [6] | pTCD50 [7]

Cc1nc(C)c(C(=O)O[C@H]2C[C@H]3CCN(C)[C@H]3[C@@H]3c4cc5c(cc4C(=O)O[C@H]32)OCO5)cc1C(=O)O[C@H]1C[C@H]2CCN(C)[C@H]2[C@@H]2c3cc4c(cc3C(=O)O[C@H]21)OCO4 [CLIVIMINE]
1: pTCD50 [9] | pTCD50 [10] | pTCD50 [11] | pTCD50 [12] | pTCD50 [1] | pTCD50 [2] | pTCD50 [13] | pTCD50 [14] | pTCD50 [15] | pTCD50 [16] | pTCD50 [4] | pTCD50 [17] | pTCD50 [18] | pTCD50 [5] | pTCD50 [6] | pTCD50 [19] | pTCD50 [20] | pTCD50 [21] | pTCD50 [22] | pTCD50 [23] | pTCD50 [24] | pTCD50 [8]
10: pTCD50 [3] | pTCD50 [7]

CN1CC[C@@H]2C[C@H](O)[C@@H]3OC(=O)c4cc5c(cc4[C@H]3[C@@H]21)OCO5 [CLIVONINE]
10: pTCD50 [2] | pTCD50 [3] | pTCD50 [7]
1: pTCD50 [1] | pTCD50 [4] | pTCD50 [5] | pTCD50 [6] | pTCD50 [8]

O[C@H]1[C@H]2c3cc4c(cc3CN3CCC(=C[C@@H]1O)[C@H]23)OCO4 [LYCORINE]
10: selectivity ratio [26] | selectivity ratio [34] | selectivity ratio [35] | selectivity ratio [37]
Active: Activity [40]
active: Activity [27] | Activity [28]
Toxic: Activity [25] | Activity [29] | Activity [31] | Activity [32] | Activity [33] | Activity [38] | Activity [39] | Activity [41] | Activity [42] | Activity [43]
inactive: Activity [30]
10000: pTCD50 [14] | pTCD50 [18]
Non-toxic: Activity [36] | Activity [44]
100: pTCD50 [10] | pTCD50 [11] | pTCD50 [12] | pTCD50 [19] | pTCD50 [21] | pTCD50 [23]
1000: pTCD50 [9] | pTCD50 [13] | pTCD50 [15] | pTCD50 [16] | pTCD50 [17] | pTCD50 [20] | pTCD50 [22] | pTCD50 [24]
